Test results as given in paper PMC5539244, “2-Oxoesters: A Novel Class of Potent and Selective Inhibitors of Cytosolic Group IVA Phospholipase A2” (Scientific Reports, 2017).
Several values for one entry are separate records, joined by “and”; a condition that tells them apart may be missing. Identical values can stand only once. Like-named read-outs stand apart in the source and are kept apart here.

What was measured:
RAW264.7 macrophages [1] = experiment: KLA-elicited eicosanoid production in macrophages (LC-MS/MS); assay type: cell-based, murine; conditions: 5 μM inhibitor 1 h before KLA 100 ng/mL; supernatant at 24 h
Method: It is well established that the toll-like receptor 4 (TLR4)-specific agonist Kdo2-lipid A (KLA) leads to GIVA cPLA2 activation, [52] and release of arachidonic acid in macrophages that is then converted into eicosanoids by cyclooxygenase-2[53]–[55]. […] The high levels of PGD2 compared to background in culture supernatants following KLA stimulation makes it an ideal marker for GIVA cPLA2 activity in macrophages. […] RAW264.7 macrophages were pre-treated with vehicle control, DMSO or 17f (5 μM) for one hour prior to stimulation with KLA (100 ng/mL). Culture supernatants were collected after 24 hours for eicosanoid quantification by LC-MS/MS.
Figure 8 Inhibitor 17f inhibits KLA-elicited prostaglandin D2 biosynthesis by macrophages. […] Supernatants were collected 24 hr following stimulation for eicosanoid quantification.
RAW264.7 murine macrophage cells (ATCC #TIB-71) were maintained at 37 °C, 5% CO2 in DMEM (Life Technologies 11995–065) containing 10% FBS (Gemini), 100 U/mL penicillin/streptomycin, 1 mM sodium pyruvate and 4 mM L-glutamine. […] Supernatants were collected at 24 hours for eicosanoid quantification. […] Online UPLC-electrospray ionization MS/MS quantitation of eicosanoids was performed on a QTRAP 6500 hybrid quadrupole/linear ion-trap mass spectrometer (AB Sciex) via multiple reaction monitoring (MRM) in negative ion mode. […]

[2] = biological target: T1, recombinant human GIVA cPLA2 (Homo sapiens, UniProt P47712); experiment: mixed micelle assay, GIVA cPLA2 inhibition; assay type: biochemical; conditions: for GIVA cPLA2 X I(50): mole fraction of inhibitor in total substrate interface giving 50% inhibition; for inhibition at 0.091 mole fraction: read-out: GIVA cPLA2 % Inhibition
T1 sequence (P47712 1-749): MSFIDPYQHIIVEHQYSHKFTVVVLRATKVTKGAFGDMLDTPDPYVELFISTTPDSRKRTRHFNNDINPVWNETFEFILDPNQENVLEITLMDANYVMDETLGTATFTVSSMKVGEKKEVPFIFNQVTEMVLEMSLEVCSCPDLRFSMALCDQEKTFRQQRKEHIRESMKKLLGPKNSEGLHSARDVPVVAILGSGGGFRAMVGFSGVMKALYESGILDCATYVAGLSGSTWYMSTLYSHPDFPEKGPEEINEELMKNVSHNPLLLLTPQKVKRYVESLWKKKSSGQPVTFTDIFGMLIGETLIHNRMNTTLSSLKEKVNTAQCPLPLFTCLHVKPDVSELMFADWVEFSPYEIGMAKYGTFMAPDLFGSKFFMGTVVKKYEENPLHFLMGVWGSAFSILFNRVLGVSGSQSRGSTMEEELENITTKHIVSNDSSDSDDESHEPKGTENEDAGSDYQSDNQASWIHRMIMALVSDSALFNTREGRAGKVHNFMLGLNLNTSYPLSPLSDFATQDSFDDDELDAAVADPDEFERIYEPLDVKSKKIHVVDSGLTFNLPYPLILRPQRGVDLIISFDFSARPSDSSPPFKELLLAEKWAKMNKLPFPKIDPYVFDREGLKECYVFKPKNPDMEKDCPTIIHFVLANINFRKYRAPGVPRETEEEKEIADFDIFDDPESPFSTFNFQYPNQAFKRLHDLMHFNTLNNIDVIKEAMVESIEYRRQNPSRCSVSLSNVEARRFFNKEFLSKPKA

human GV sPLA2 = biological target: T2, human GV sPLA2 (Homo sapiens, UniProt P39877); experiment: mixed micelle assay, GV sPLA2 inhibition; assay type: biochemical; conditions: read-out: GV sPLA2 % Inhibition
T2 sequence (P39877 21-138): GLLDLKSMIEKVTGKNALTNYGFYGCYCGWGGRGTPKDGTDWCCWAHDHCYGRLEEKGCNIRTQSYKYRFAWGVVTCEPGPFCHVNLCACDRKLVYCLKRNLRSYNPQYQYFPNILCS

RAW264.7 macrophages [3] = experiment: cellular toxicity by trypan blue exclusion; assay type: cell-based, murine; conditions: any concentration tested, data not shown
logP measured by HPLC = assay type: physicochemical
human GVIA iPLA2 = biological target: T3, human GVIA iPLA2 (Homo sapiens, UniProt O60733); experiment: mixed micelle assay, GVIA iPLA2 inhibition; assay type: biochemical; conditions: for inhibition at 0.091 mole fraction: read-out: GVIA iPLA2 % Inhibition
T3 sequence (O60733 1-806): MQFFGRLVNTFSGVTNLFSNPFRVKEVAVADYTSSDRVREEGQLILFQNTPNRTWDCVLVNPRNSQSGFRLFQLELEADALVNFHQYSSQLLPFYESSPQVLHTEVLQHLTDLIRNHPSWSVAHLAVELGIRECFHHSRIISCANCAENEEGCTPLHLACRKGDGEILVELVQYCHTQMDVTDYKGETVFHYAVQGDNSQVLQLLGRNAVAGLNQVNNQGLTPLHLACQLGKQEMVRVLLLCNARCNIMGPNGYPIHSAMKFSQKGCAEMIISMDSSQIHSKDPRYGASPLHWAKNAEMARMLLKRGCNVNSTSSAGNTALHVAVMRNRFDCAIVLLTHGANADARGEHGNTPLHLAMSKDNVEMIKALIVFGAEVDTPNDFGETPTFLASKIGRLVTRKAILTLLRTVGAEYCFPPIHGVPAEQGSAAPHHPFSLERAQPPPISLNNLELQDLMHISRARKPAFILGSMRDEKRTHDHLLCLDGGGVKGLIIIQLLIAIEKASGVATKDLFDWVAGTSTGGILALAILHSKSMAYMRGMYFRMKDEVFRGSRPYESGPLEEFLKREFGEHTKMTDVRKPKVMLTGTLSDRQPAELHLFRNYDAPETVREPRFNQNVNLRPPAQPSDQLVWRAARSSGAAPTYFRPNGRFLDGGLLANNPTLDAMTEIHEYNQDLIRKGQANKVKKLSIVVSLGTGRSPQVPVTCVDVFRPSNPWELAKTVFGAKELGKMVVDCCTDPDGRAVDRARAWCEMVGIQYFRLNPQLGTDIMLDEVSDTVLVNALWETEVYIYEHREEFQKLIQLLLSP

[4] = biological target: T1, recombinant human GIVA cPLA2; set-up: method as in PMID 12086476, PMID 15214789; conditions: mixed micelle assay; cited from earlier work
[5] = at 0.091 mole fraction of inhibitor, mixed micelles

| Structure (SMILES) | GIVA cPLA2 X I(50) [2] | inhibition at 0.091 mole fraction [2] [%] | inhibition at 0.091 mole fraction (human GV sPLA2) [%] | inhibition at 0.091 mole fraction (human GVIA iPLA2) [%] | inhibition at 0.091 mole fraction [2, 5] [%] | inhibition at 0.091 mole fraction (human GV sPLA2; [5]) [%] | also measured |
| --- | --- | --- | --- | --- | --- | --- | --- |
| O=C(O)CCCCOC(=O)C(=O)CCCCc1ccc(-c2ccccc2)cc1 [17f, 5-((6-([1,1′-Biphenyl]-4-yl)-2-oxohexanoyl)oxy)pentanoic acid] | 0.000078 ± 0.00001 mole fraction | > 95 | < 25 |  |  |  | decrease in KLA-elicited PGD2 production (RAW264.7 macrophages [1]): over 50%; increase in potency compared to GK174 on GIVA cPLA2 ([2]; addition of the carboxylic moiety): 10 fold; cellular toxicity (RAW264.7 macrophages [3]): did not show cellular toxicity; chromatographic logP (logP measured by HPLC): 3.5 |
| O=C(O)CCCOC(=O)C(=O)CCCCc1ccc(-c2ccccc2)cc1 [17d, 4-(6-(Biphenyl-4-yl)-2-oxohexanoyloxy)butanoic acid] | 0.00068 mole fraction and 0.00068 ± 0.00007 mole fraction | > 95 | < 25 | < 25 |  |  | melting point: 101 to 103 °C; times less potent than 17a on GIVA cPLA2 ([2]; ratio of X I(50) values): eight |
| CCOC(=O)CCCOC(=O)C(=O)CCCCc1ccccc1 [compound 19, 4-Ethoxy-4-oxobutyl 2-oxo-6-phenylhexanoate] |  |  |  | < 25 | 27.3 ± 4.8 | < 25 |  |
| CCCCCCCCCCOc1ccc(OCC(=O)Cn2cc(C(=O)OC)c3cc(C(=O)O)ccc32)cc1 [compound 4, reference compound] | 0.00008 mole fraction and 0.00008 ± 0.000005^c mole fraction | > 95 |  |  |  |  |  |
| CCCCCCCCCCCCCCC(=O)C(=O)OCCCCC(=O)O [17e, 5-((2-Oxohexadecanoyl)oxy)pentanoic acid] | 0.00007 ± 0.00001 mole fraction |  | < 25 |  | > 95 |  | inhibition at 0.091 mole fraction (human GVIA iPLA2; [5]): 25% |
| COC(=O)C(=O)CCCCc1ccc2ccccc2c1 [10b, Methyl 6-(naphthalen-2-yl)-2-oxohexanoate] |  |  |  |  | 55 ± 4 | < 25 | inhibition at 0.091 mole fraction (human GVIA iPLA2; [5]): > 95%; GVIA iPLA2 X I(50) (human GVIA iPLA2; mole fraction of inhibitor in total substrate interface giving 50% inhibition): 0.0052 mole fraction and 0.0052 ± 0.0007 mole fraction |
| CCCCCCCCCCCCCCC(O)C(=O)OCCCC(=O)O (stereo not drawn) [compound 20, 4-((2-Hydroxyhexadecanoyl)oxy)butanoic acid] |  | < 25 | 41 ± 0.2 | < 25 |  |  |  |
| O=C1NC(=O)/C(=C/c2ccc(C(=O)NC[C@@H]3C[C@@H](SC(c4ccccc4)(c4ccccc4)c4ccccc4)CN3C(=O)c3ccccc3C(=O)c3ccc(F)cc3F)cc2)S1 [compound 1, pyrrophenone] |  |  |  |  |  |  | GIVA cPLA2 X I(50) [4]: 0.002 mole fraction |
| CCCCCCCCCCCCCCC(=O)C(=O)O [12e, 2-Oxohexadecanoic acid] |  |  |  | < 25 | 78.4 ± 3.5 | < 25 |  |
| CC(C)(C)OC(=O)CCCOC(=O)C(=O)CCCCc1ccccc1 [16c, 4-(tert-Butoxy)-4-oxobutyl 2-oxo-6-phenylhexanoate] |  |  |  | < 25 | < 25 | < 25 |  |
| COC(=O)C(=O)CCCCc1ccccc1 [10a, Methyl 2-oxo-6-phenylhexanoate] |  |  |  |  | < 25 | < 25 | inhibition at 0.091 mole fraction (human GVIA iPLA2; [5]): 72 ± 4% |
| CCCCCCCCCCCCCCC(=O)C(=O)OCCCC(=O)O [17a, 4-((2-Oxohexadecanoyl)oxy)butanoic acid] | 0.00008 ± 0.00001 mole fraction | > 95 | < 25 | < 25 |  |  | melting point: 76 to 78 °C |
| CCCCCCCCCCCCCCC(=O)C(=O)OC [10e, Methyl 2-oxohexadecanoate] |  |  |  | 69.4 ± 12.2 | 68.2 ± 2.7 | 27.5 ± 0.9 |  |
| O=C(O)CCCCOC(=O)C(=O)CCCc1ccc(-c2ccccc2)cc1 [17h, 5-((5-([1,1′-Biphenyl]-4-yl)-2-oxopentanoyl)oxy)pentanoic acid] | 0.0010 ± 0.0003 mole fraction |  | < 25 |  | > 95 |  | inhibition at 0.091 mole fraction (human GVIA iPLA2; [5]): 94 ± 1.4% |
| CCCCCCOc1ccc(CCCCC(=O)C(=O)OCCCC(=O)O)cc1 [17b, 4-((6-(4-(Hexyloxy)phenyl)-2-oxohexanoyl)oxy)butanoic acid] | 0.00289 ± 0.00043 mole fraction | > 95 | 52.6 ± 5.3 | < 25 |  |  |  |
| O=C(O)CCCOC(=O)C(=O)CCCc1ccc(-c2ccccc2)cc1 [17g, 4-((5-([1,1′-Biphenyl]-4-yl)-2-oxopentanoyl)oxy)butanoic acid] | 0.0065 ± 0.002 mole fraction | > 95 | < 25 | 84 ± 1.5 |  |  | melting point: 58 to 60 °C |
